Like-named read-outs stand apart in the source and are kept apart here.
Experiment: Single dose PK in healthy subjects (Cohorts 1, 2, S1 and S2), plasma
Type: in vivo, human
Settings: human, plasma, iv, healthy subjects
Description: This study investigates (i) the safety and tolerability of Compound A (methyl (2R,3S)-3-((methylsulfonyl)amino)-2-(((cis-4-phenylcyclohexyl)oxy)methyl)piperidine-1-carboxylate) when a single dose given as a 9 hour continuous IV infusion is administered to healthy adults, healthy elderly subjects and patients with narcolepsy type 1 (NT1); (ii) the pharmacokinetics of Compound A when a single dose given as a 9 hour continuous IV infusion is administered to healthy adults, healthy elderly subjects and patients with narcolepsy type 1; and (iii) the pharmacodynamics (PD) effects of Compound A, primarily by evaluation of the sleep latency on MWT when a single dose given as a 9 hour continuous IV infusion is administered to patients with narcolepsy type 1.
Pharmacokinetics: Concentrations of Compound A in plasma, and CSF, and pharmacokinetics parameters.
On average, the time to reach the plateau appeared to be approximately 3 to 4 hours after the start of infusion. […] After switching off the IV infusion, Compound A plasma concentrations declined rapidly and in a biphasic manner with a mean terminal disposition phase t1/2z ranging approximately from 3.4 to 5.1 hours across all doses. […] Table 5 provides a summary of plasma concentrations of Compound A after a single IV infusion in healthy subjects. Table 6 provides a summary of pharmacokinetic parameters of Compound A after a single IV infusion in healthy subjects.

COC(=O)N1CCC[C@H](NS(C)(=O)=O)[C@@H]1CO[C@H]1CC[C@@H](c2ccccc2)CC1 [Compound A, methyl (2R,3S)-3-((methylsulfonyl)amino)-2-(((cis-4-phenylcyclohexyl)oxy)methyl)piperidine-1-carboxylate] gave an AUC(0-inf) (14 mg, 14 mg single IV infusion, read-out: AUCinf Median) of 322 ng·h/mL, an AUC(0-t) (14 mg, 14 mg single IV infusion, read-out: AUClast Geo Mean) of 323 ng·h/mL and an AUC(0-t) (14 mg, 14 mg single IV infusion, read-out: AUClast Mean) of 326 ng·h/mL. For the same compound, the AUC(0-t) (14 mg, 14 mg single IV infusion, read-out: AUClast Median) was 322 ng·h/mL, the clearance (14 mg, 14 mg single IV infusion, read-out: CL Mean (converted)) was 718 mL/min and the clearance (14 mg, 14 mg single IV infusion, read-out: CL Median (converted)) was 723 mL/min. It also gave a concentration at 9 h (14 mg, 14 mg single IV infusion, read-out: Ceoi Geo Mean) of 29.8 ng/mL, a concentration at 9 h (14 mg, 14 mg single IV infusion, read-out: Ceoi Mean) of 30.1 ng/mL and a concentration at 9 h (14 mg, 14 mg single IV infusion, read-out: Ceoi Median) of 30.8 ng/mL. The Cmax (14 mg, 14 mg single IV infusion, read-out: Cmax Geo Mean) was 36.8 ng/mL, the Cmax (14 mg, 14 mg single IV infusion, read-out: Cmax Mean) was 37 ng/mL and the Cmax (14 mg, 14 mg single IV infusion, read-out: Cmax Median) was 37 ng/mL. It also gave a Vd (14 mg, 14 mg single IV infusion, read-out: Vss Mean) of 77.1 L, a Vd (14 mg, 14 mg single IV infusion, read-out: Vss Median) of 72.7 L and a Vd (14 mg, 14 mg single IV infusion, read-out: Vz Mean) of 272 L. It also gave a Vd (14 mg, 14 mg single IV infusion, read-out: Vz Median) of 253 L, a Tmax (14 mg, 14 mg single IV infusion, read-out: tmax Mean) of 3.67 h and a Tmax (14 mg, 14 mg single IV infusion, read-out: tmax Median) of 4 h. For the same compound, the AUC (28 mg, 28 mg single IV infusion, read-out: AUC24 Geo Mean) was 513 ng·h/mL, the AUC (28 mg, 28 mg single IV infusion, read-out: AUC24 Mean) was 519 ng·h/mL and the AUC (28 mg, 28 mg single IV infusion, read-out: AUC24 Median) was 543 ng·h/mL. The AUC(0-inf) (28 mg, 28 mg single IV infusion, read-out: AUCinf Geo Mean) was 524 ng·h/mL, the AUC(0-inf) (28 mg, 28 mg single IV infusion, read-out: AUCinf Mean) was 530 ng·h/mL and the AUC(0-inf) (28 mg, 28 mg single IV infusion, read-out: AUCinf Median) was 549 ng·h/mL. The AUC(0-t) (28 mg, 28 mg single IV infusion, read-out: AUClast Geo Mean) was 513 ng·h/mL, the AUC(0-t) (28 mg, 28 mg single IV infusion, read-out: AUClast Mean) was 519 ng·h/mL and the AUC(0-t) (28 mg, 28 mg single IV infusion, read-out: AUClast Median) was 543 ng·h/mL. The clearance (28 mg, 28 mg single IV infusion, read-out: CL Mean (converted)) was 903 mL/min, the clearance (28 mg, 28 mg single IV infusion, read-out: CL Median (converted)) was 850 mL/min and the concentration at 9 h (28 mg, 28 mg single IV infusion, read-out: Ceoi Geo Mean) was 52.1 ng/mL. For the same compound, the concentration at 9 h (28 mg, 28 mg single IV infusion, read-out: Ceoi Mean) was 52.5 ng/mL, the concentration at 9 h (28 mg, 28 mg single IV infusion, read-out: Ceoi Median) was 55.3 ng/mL and the Cmax (28 mg, 28 mg single IV infusion, read-out: Cmax Geo Mean) was 57.6 ng/mL. The Cmax (28 mg, 28 mg single IV infusion, read-out: Cmax Mean) was 58.1 ng/mL, the Cmax (28 mg, 28 mg single IV infusion, read-out: Cmax Median) was 59.3 ng/mL and the Vd (28 mg, 28 mg single IV infusion, read-out: Vss Mean) was 116 L. The Vd (28 mg, 28 mg single IV infusion, read-out: Vss Median) was 105 L, the Vd (28 mg, 28 mg single IV infusion, read-out: Vz Mean) was 392 L and the Vd (28 mg, 28 mg single IV infusion, read-out: Vz Median) was 406 L. It also gave a Tmax (28 mg, 28 mg single IV infusion, read-out: tmax Mean) of 3 h, a Tmax (28 mg, 28 mg single IV infusion, read-out: tmax Median) of 3 h and an AUC (56 mg, 56 mg single IV infusion, read-out: AUC24 Geo Mean) of 1060 ng·h/mL. For the same compound, the AUC (56 mg, 56 mg single IV infusion, read-out: AUC24 Mean) was 1070 ng·h/mL, the AUC (56 mg, 56 mg single IV infusion, read-out: AUC24 Median) was 1040 ng·h/mL and the AUC(0-inf) (56 mg, 56 mg single IV infusion, read-out: AUCinf Geo Mean) was 1060 ng·h/mL. For the same compound, the AUC(0-inf) (56 mg, 56 mg single IV infusion, read-out: AUCinf Mean) was 1080 ng·h/mL, the AUC(0-inf) (56 mg, 56 mg single IV infusion, read-out: AUCinf Median) was 1050 ng·h/mL and the AUC(0-t) (56 mg, 56 mg single IV infusion, read-out: AUClast Geo Mean) was 1060 ng·h/mL. It also gave an AUC(0-t) (56 mg, 56 mg single IV infusion, read-out: AUClast Mean) of 1070 ng·h/mL, an AUC(0-t) (56 mg, 56 mg single IV infusion, read-out: AUClast Median) of 1040 ng·h/mL and a clearance (56 mg, 56 mg single IV infusion, read-out: CL Mean (converted)) of 885 mL/min. For the same compound, the clearance (56 mg, 56 mg single IV infusion, read-out: CL Median (converted)) was 891 mL/min, the concentration at 9 h (56 mg, 56 mg single IV infusion, read-out: Ceoi Geo Mean) was 115 ng/mL and the concentration at 9 h (56 mg, 56 mg single IV infusion, read-out: Ceoi Mean) was 115 ng/mL. It also gave a concentration at 9 h (56 mg, 56 mg single IV infusion, read-out: Ceoi Median) of 112 ng/mL, a Cmax (56 mg, 56 mg single IV infusion, read-out: Cmax Geo Mean) of 123 ng/mL and a Cmax (56 mg, 56 mg single IV infusion, read-out: Cmax Mean) of 123 ng/mL. For the same compound, the Cmax (56 mg, 56 mg single IV infusion, read-out: Cmax Median) was 122 ng/mL, the Vd (56 mg, 56 mg single IV infusion, read-out: Vss Mean) was 91.4 L and the Vd (56 mg, 56 mg single IV infusion, read-out: Vss Median) was 89.1 L. For the same compound, the Vd (56 mg, 56 mg single IV infusion, read-out: Vz Mean) was 291 L, the Vd (56 mg, 56 mg single IV infusion, read-out: Vz Median) was 282 L and the Tmax (56 mg, 56 mg single IV infusion, read-out: tmax Mean) was 4.5 h. It also gave a Tmax (56 mg, 56 mg single IV infusion, read-out: tmax Median) of 4 h, an AUC (112 mg, 112 mg single IV infusion, read-out: AUC24 Geo Mean) of 2070 ng·h/mL and an AUC (112 mg, 112 mg single IV infusion, read-out: AUC24 Mean) of 2090 ng·h/mL. For the same compound, the AUC (112 mg, 112 mg single IV infusion, read-out: AUC24 Median) was 2130 ng·h/mL, the AUC(0-inf) (112 mg, 112 mg single IV infusion, read-out: AUCinf Geo Mean) was 2090 ng·h/mL and the AUC(0-inf) (112 mg, 112 mg single IV infusion, read-out: AUCinf Mean) was 2110 ng·h/mL. The AUC(0-inf) (112 mg, 112 mg single IV infusion, read-out: AUCinf Median) was 2160 ng·h/mL, the AUC(0-t) (112 mg, 112 mg single IV infusion, read-out: AUClast Geo Mean) was 2070 ng·h/mL and the AUC(0-t) (112 mg, 112 mg single IV infusion, read-out: AUClast Mean) was 2090 ng·h/mL. The AUC(0-t) (112 mg, 112 mg single IV infusion, read-out: AUClast Median) was 2130 ng·h/mL, the clearance (112 mg, 112 mg single IV infusion, read-out: CL Mean (converted)) was 902 mL/min and the clearance (112 mg, 112 mg single IV infusion, read-out: CL Median (converted)) was 867 mL/min. For the same compound, the concentration at 9 h (112 mg, 112 mg single IV infusion, read-out: Ceoi Geo Mean) was 214 ng/mL, the concentration at 9 h (112 mg, 112 mg single IV infusion, read-out: Ceoi Mean) was 216 ng/mL and the concentration at 9 h (112 mg, 112 mg single IV infusion, read-out: Ceoi Median) was 221 ng/mL. The Cmax (112 mg, 112 mg single IV infusion, read-out: Cmax Geo Mean) was 235 ng/mL, the Cmax (112 mg, 112 mg single IV infusion, read-out: Cmax Mean) was 238 ng/mL and the Cmax (112 mg, 112 mg single IV infusion, read-out: Cmax Median) was 250 ng/mL. The Vd (112 mg, 112 mg single IV infusion, read-out: Vss Mean) was 97.8 L, the Vd (112 mg, 112 mg single IV infusion, read-out: Vss Median) was 104 L and the Vd (112 mg, 112 mg single IV infusion, read-out: Vz Mean) was 289 L. It also gave a Vd (112 mg, 112 mg single IV infusion, read-out: Vz Median) of 301 L, a Tmax (112 mg, 112 mg single IV infusion, read-out: tmax Mean) of 4.25 h and a Tmax (112 mg, 112 mg single IV infusion, read-out: tmax Median) of 4 h. For the same compound, the AUC (134.4 mg, 134.4 mg single IV infusion, read-out: AUC24 Geo Mean) was 2660 ng·h/mL, the AUC (134.4 mg, 134.4 mg single IV infusion, read-out: AUC24 Mean) was 2690 ng·h/mL and the AUC (134.4 mg, 134.4 mg single IV infusion, read-out: AUC24 Median) was 2670 ng·h/mL. It also gave an AUC(0-inf) (134.4 mg, 134.4 mg single IV infusion, read-out: AUCinf Geo Mean) of 2680 ng·h/mL, an AUC(0-inf) (134.4 mg, 134.4 mg single IV infusion, read-out: AUCinf Mean) of 2720 ng·h/mL and an AUC(0-inf) (134.4 mg, 134.4 mg single IV infusion, read-out: AUCinf Median) of 2680 ng·h/mL. It also gave an AUC(0-t) (134.4 mg, 134.4 mg single IV infusion, read-out: AUClast Geo Mean) of 2660 ng·h/mL, an AUC(0-t) (134.4 mg, 134.4 mg single IV infusion, read-out: AUClast Mean) of 2690 ng·h/mL and an AUC(0-t) (134.4 mg, 134.4 mg single IV infusion, read-out: AUClast Median) of 2670 ng·h/mL. It also gave a clearance (134.4 mg, 134.4 mg single IV infusion, read-out: CL Mean (converted)) of 848 mL/min, a clearance (134.4 mg, 134.4 mg single IV infusion, read-out: CL Median (converted)) of 839 mL/min and a concentration at 9 h (134.4 mg, 134.4 mg single IV infusion, read-out: Ceoi Geo Mean) of 290 ng/mL. For the same compound, the concentration at 9 h (134.4 mg, 134.4 mg single IV infusion, read-out: Ceoi Mean) was 292 ng/mL and the concentration at 9 h (134.4 mg, 134.4 mg single IV infusion, read-out: Ceoi Median) was 300 ng/mL.

Reference: US20220339143A1, “TAK-925 FOR USE IN TREATING NARCOLEPSY” (Takeda Pharmaceutical Company Limited, priority 2019, published 2022)
